pIC50: −log10 of the molar value.
Experiment: Antagonist activity at CCR4 in mouse Treg cells assessed as inhibition of CCL22-mediated chemotaxis preincubated for 30 mins followed by CCL22 addition and measured after 60 mins in presence of 100% mouse serum by CellTiter-Glo assay

SMILES | pIC50
C[C@H](c1ccc(Cl)cc1Cl)n1nc(C#N)c2ncc(N3CC([C@H]4CCCN(CCO)C4)C3)nc21 | 7.41

Experiment: Antagonist activity at CCR4 in human Treg cells assessed as inhibition of CCL22-mediated chemotaxis preincubated for 30 mins followed by CCL22 addition and measured after 60 mins in presence of 100% human serum by CellTiter-Glo assay

SMILES | pIC50
C[C@H](c1ccc(Cl)cc1Cl)n1nc(C#N)c2ncc(N3CC([C@H]4CCCN(CCO)C4)C3)nc21 | 7.48

Experiment: Antagonist activity at CCR4 in human CCRF-CEM cells assessed as inhibition of CCL22-mediated chemotaxis preincubated for 30 mins followed by CCL22 addition and measured after 60 mins in presence of 100% human serum by CellTiter-Glo assay

SMILES | pIC50
Cc1nn([C@H](C)c2ccc(Cl)cc2Cl)c2nc(N3CC([C@H]4CCCN(CCS(N)(=O)=O)C4)C3)cnc12 | 6.14
Cc1nn([C@H](C)c2ccc(Cl)cc2Cl)c2nc(N3CC([C@H]4CCCN(CCC(N)=O)C4)C3)cnc12 | 6.61
C[C@H](c1ccc(Cl)cc1Cl)n1nc(C(=O)N(C)C)c2ncc(N3CC([C@H]4CCCN(CCO)C4)C3)nc21 | 6.42
Cc1nn([C@H](C)c2ccc(Cl)cc2Cl)c2nc(N3CC([C@H]4CCCN(CCCS(C)(=O)=O)C4)C3)cnc12 | 6.59
Cc1nn([C@H](C)c2ccc(Cl)cc2Cl)c2nc(N3CC([C@H]4CCCN(CCS(C)(=O)=O)C4)C3)cnc12 | 6.24
CNC(=O)c1nn([C@H](C)c2ccc(Cl)cc2Cl)c2nc(N3CC([C@H]4CCCN(CCO)C4)C3)cnc12 | 6.35
COC(=O)NCCN1CCC[C@H](C2CN(c3cnc4c(C)nn([C@H](C)c5ccc(Cl)cc5Cl)c4n3)C2)C1 | 6.88
C[C@H](c1ccc(Cl)cc1Cl)n1nc(C#N)c2ncc(N3CC([C@H]4CCCN(CCC#N)C4)C3)nc21 | 6.28
Cc1nn([C@H](C)c2ccc(Cl)cc2Cl)c2nc(N3CC([C@H]4CCCN(CCCC(=O)O)C4)C3)cnc12 | 6.25
C[C@H](c1ccc(Cl)cc1Cl)n1nc(C#N)c2ncc(N3CC([C@H]4CCCN(CCC(=O)O)C4)C3)nc21 | 6.39
Cc1nn([C@H](C)c2ccc(Cl)cc2Cl)c2nc(N3CC([C@H]4CCCN(CCO)C4)C3)cnc12 | 7.13
C[C@H](c1ccc(Cl)cc1Cl)n1nc(C#N)c2ncc(N3CC([C@H]4CCCN(CC(=O)O)C4)C3)nc21 | 6.11
C[C@H](c1ccc(Cl)cc1Cl)n1nc(C#N)c2ncc(N3CC([C@H]4CCCN(CCC(F)(F)F)C4)C3)nc21 | 5.82
Cc1nn([C@H](C)c2ccc(Cl)cc2Cl)c2nc(N3CC([C@H]4CCCN(CCNC(=O)C(C)C)C4)C3)cnc12 | 7.23
Cc1nn([C@H](C)c2ccc(Cl)cc2Cl)c2nc(N3CC([C@H]4CCCN(CCC(=O)O)C4)C3)cnc12 | 6.43
Cc1nn([C@H](C)c2ccc(Cl)cc2Cl)c2nc(N3CC([C@H]4CCCN(CCNS(C)(=O)=O)C4)C3)cnc12 | 6.87
C[C@H](c1ccc(Cl)cc1Cl)n1nc(C(N)=O)c2ncc(N3CC([C@H]4CCCN(CCO)C4)C3)nc21 | 7.44
C[C@H](c1ccc(Cl)cc1Cl)n1nc(C#N)c2ncc(N3CC([C@H]4CCCN(CCO)C4)C3)nc21 | 7.30
Cc1nn([C@H](C)c2ccc(Cl)cc2Cl)c2nc(N3CC([C@H]4CCCN(CCNS(=O)(=O)C(C)C)C4)C3)cnc12 | 6.94
CC(=O)NCCN1CCC[C@H](C2CN(c3cnc4c(C)nn([C@H](C)c5ccc(Cl)cc5Cl)c4n3)C2)C1 | 7.40
C[C@H](c1ccc(Cl)cc1Cl)n1nc(C#N)c2ncc(N3CC([C@H]4CCCN(Cc5cnc[nH]5)C4)C3)nc21 | 7.01
Cc1nn([C@H](C)c2ccc(Cl)cc2Cl)c2nc(N3CC([C@H]4CCCN(CCCO)C4)C3)cnc12 | 6.96

Experiment: Antagonist activity at CCR4 in human CCRF-CEM cells assessed as inhibition of CCL17-mediated chemotaxis preincubated for 30 mins followed by CCL17 addition and measured after 60 mins in presence of 100% human serum by CellTiter-Glo assay

SMILES | pIC50
C[C@H](c1ccc(Cl)cc1Cl)n1nc(C#N)c2ncc(N3CC([C@H]4CCCN(CCO)C4)C3)nc21 | 7.19
